Converted amounts (≈) assume the structure as drawn. “And” between values parts separate entries of the source, which are not always exact repeats. Identical values can stand only once.
Key:
[1] = Stability of process solutions / solid on drying over days (HPLC area %); type: physicochemical
[2] = Solubility data in solvents; type: physicochemical; settings: for solubility: organic solvent or mixture

COc1c(Cl)cccc1N=C=S [Compound 1, 1-chloro-3-isothiocyanato-2-methoxybenzene]
Area % after hold ([1]; IPAC solution, 40 ± 5 C., 1 d): 96.0 A %
Area % after hold ([1]; IPAC solution, 40 ± 5 C., 2 d): 95.9 A %
Area % after hold ([1]; IPAC solution, 40 ± 5 C., 3 d): 94.3 A %
Area % after hold ([1]; IPAC solution, 50 ± 5 C., 1 d): 95.5 A %
Area % after hold ([1]; IPAC solution, 50 ± 5 C., 2 d): 94.7 A %
Area % after hold ([1]; IPAC solution, 50 ± 5 C., 3 d): 90.5 A %

COc1c(Cl)cccc1Nc1c(-c2ccncc2Br)[nH]c2c1C(=O)NCC2 [Compound 102, 2-(3-bromopyridin-4-yl)-3-((3-chloro-2-methoxyphenyl)amino)-1,5,6,7-tetrahydro-4H-pyrrolo[3,2-c]pyridin-4-one]
Dissolution in crystallization solvents ([2]; 5 V of DCM, MeCN, MTBE, THF, MeOH, EtOAc or toluene at reflux): has not been dissolved in all these solvents at reflux except for THE
solubility ([2]; solvent 2-MeTHF): 5 mg/mL (≈ 11.2 mM)
solubility ([2]; solvent DMAC): > 200 mg/mL
solubility ([2]; solvent DMF): > 100 mg/mL
solubility ([2]; solvent DMSO): > 100 mg/mL
solubility ([2]; solvent HFIP): 94 mg/mL (≈ 210 mM)
solubility ([2]; solvent MeCN): 2 mg/mL (≈ 4.47 mM)
solubility ([2]; solvent NMP): > 100 mg/mL
solubility ([2]; solvent TFE): 79 mg/mL (≈ 176 mM)
solubility ([2]; solvent THE): 31 mg/mL (≈ 69.2 mM)

COc1c(Cl)cccc1Nc1c(-c2ccncc2Br)[nH]c2c1C(=O)N(C(=O)OC(C)(C)C)CC2 [Compound 101, tert-butyl 2-(3-bromopyridin-4-yl)-3-((3-chloro-2-methoxyphenyl)amino)-4-oxo-1,4,6,7-tetrahydro-5H-pyrrolo[3,2-c]pyridine-5-carboxylate]
solubility ([2]; solvent ACN): 33 mg/mL (≈ 60.2 mM)
solubility ([2]; solvent DCM): > 125 mg/mL
solubility ([2]; solvent EtOAc): 6.25 mg/mL (≈ 11.4 mM)
solubility ([2]; solvent EtOH): 6.25 mg/mL (≈ 11.4 mM)
solubility ([2]; solvent MTBE): 6.25 mg/mL (≈ 11.4 mM)
solubility ([2]; solvent MeOH): 7.1 mg/mL (≈ 13 mM)
solubility ([2]; solvent n-heptane): < 5 mg/mL
solubility ([2]; solvent toluene): < 5 mg/mL

COc1c(Cl)cccc1NC(=S)C1=C(O)CCN(C(=O)OC(C)(C)C)C1=O [Compound 2, tert-butyl 5-((3-chloro-2-methoxyphenyl)carbamothioyl)-4-hydroxy-6-oxo-3,6-dihydropyridine-1(2H)-carboxylate]
solubility ([2]; solvent ACN): 33 mg/mL (≈ 79.9 mM)
solubility ([2]; solvent DCM): > 200 mg/mL
solubility ([2]; solvent EtOAc): 100 mg/mL (≈ 242 mM)
solubility ([2]; solvent EtOH): < 5 mg/mL
solubility ([2]; solvent MTBE): 28 mg/mL (≈ 67.8 mM)
solubility ([2]; solvent MeOH): 5 mg/mL (≈ 12.1 mM)
solubility ([2]; solvent n-heptane): < 5 mg/mL
Area % after hold ([1]; IPAC solution pH = 5-6, 20 ± 5 C., 0 d): 90.1 A %
Area % after hold ([1]; IPAC solution pH = 5-6, 20 ± 5 C., 1 d): 89.8 A %
Area % after hold ([1]; IPAC solution pH = 5-6, 20 ± 5 C., 3 d): 90.9 A %
Area % after hold ([1]; IPAC solution, 25 ± 5 C., 0 d): 87.3%
Area % after hold ([1]; IPAC solution, 25 ± 5 C., 1 d, listed as Comp. 2): 88.7% and 86.0%
Area % after hold ([1]; IPAC solution, 25 ± 5 C., 2 d, listed as Comp. 2): 86.5% and 85.6%
Area % after hold ([1]; IPAC solution, 25 ± 5 C., 3 d, listed as Comp. 2): 85.2% and 83.5%
Area % after hold ([1]; IPAC solution, 40 ± 5 C., 0 d): 90.1 A %
Area % after hold ([1]; IPAC solution, 40 ± 5 C., 1 d, listed as Comp. 2): 88.6 A % and 87.7 A %
Area % after hold ([1]; IPAC solution, 40 ± 5 C., 3 d, listed as Comp. 2): 84.7 A % and 80.0%
Area % after hold ([1]; on drying, 45 ± 5 C., 0 d): 99.7 A %
Area % after hold ([1]; on drying, 45 ± 5 C., 3 d): 99.8%
